Experimental data as given in ChEMBL document CHEMBL1201862, “PubChem BioAssay data set” (2004).
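48-hour exposure; five concentrations; linearly interpolated endpoints. GI50 is the concentration that inhibits growth by half.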 Activity calls are given as the source filed them. Rule as the data show it: active = GI50 up to about 1.1 µM and inactive = higher. Non-standard residues stand in square brackets, D forms with d. Residues, ends and D or L forms follow the SMILES beside them. *: point of attachment. Phe(4-NO2) = N[CH](Cc1ccc([N+](=O)[O-])cc1)C(=O)O; Boc = CC(C)(C)OC(=O)*

Legend:
Experiment in all cases: NCI-60 cell line screen, 48 h
[1] = test system: 786-0
[2] = test system: COLO 205
[3] = test system: DU-145
[4] = test system: HCC 2998
[5] = test system: LOX IMVI
[6] = test system: MDA-MB-435
[7] = test system: NCI-H23
[8] = test system: NCI-H522
[9] = test system: OVCAR-8
[10] = test system: RPMI-8226
[11] = test system: SF-268
[12] = test system: SK-MEL-2
[13] = test system: SK-MEL-5
[14] = test system: SK-OV-3
[15] = test system: SN12C
[16] = test system: SNB-19
[17] = test system: SNB-75
[18] = test system: UACC-257
[19] = test system: HL-60
[20] = test system: U-251

Compound | GI50 [1] | GI50 [2] | GI50 [3] | GI50 [4] | GI50 [5] | GI50 [6] | GI50 [7] | GI50 [8] | GI50 [9] | GI50 [10] | GI50 [11] | GI50 [12] | GI50 [13] | GI50 [14] | GI50 [15] | GI50 [16] | GI50 [17] | GI50 [18] | GI50 [19] | GI50 [20]
COC(=O)CCC(NC(=O)OC(C)(C)C)C(=O)NC(Cc1ccc([N+](=O)[O-])cc1)C(=O)NC(CCC(=O)OC)C(=O)OC (configuration not stated) (Boc-Glu(OMe)-[Phe(4-NO2)]-Glu(OMe)-OMe; configuration not given here) | > 100 µM (inactive) | > 100 µM (inactive) | > 100 µM (inactive) | > 100 µM (inactive) | 26.6 µM (inactive) | > 100 µM (inactive) | > 100 µM (inactive) | > 100 µM (inactive) | > 100 µM (inactive) | 27 µM (inactive) | > 100 µM (inactive) | > 100 µM (inactive) | > 100 µM (inactive) | > 100 µM (inactive) | 51.9 µM (inactive) | > 100 µM (inactive) | 33.1 µM (inactive) | 11.3 µM (inactive) |  | 
COc1ccccc1NC(=O)/C(Cc1nc2ccc([N+](=O)[O-])cc2nc1O)=N\NC(=O)C[N+](C)(C)C | 68.7 µM (inactive) | 37.2 µM (inactive) | > 100 µM (inactive) | 29.6 µM (inactive) | > 100 µM (inactive) | 20 µM (inactive) | > 100 µM (inactive) | 28.3 µM (inactive) | > 100 µM (inactive) |  | > 100 µM (inactive) | > 100 µM (inactive) | 26.4 µM (inactive) | > 100 µM (inactive) | > 100 µM (inactive) | > 100 µM (inactive) | > 100 µM (inactive) | > 100 µM (inactive) | 12.3 µM (inactive) | > 100 µM (inactive)
S=C(N/N=C(/c1ccccc1)c1ccccn1)Nc1cccc(Cl)c1 |  | < 0.0315 µM (active) | 1.15 µM (inactive) | 0.748 µM (active) |  | 0.802 µM (active) | 1.04 µM (active) |  | 0.0454 µM (active) | < 0.0385 µM (active) | 0.462 µM (active) | 0.839 µM (active) | 0.185 µM (active) | 0.215 µM (active) | 0.394 µM (active) | 3.01 µM (inactive) | 0.0569 µM (active) | < 0.0475 µM (active) | < 0.0277 µM (active) | 0.169 µM (active)
Clc1ccc(-c2cn3c(nc4ccccc43)c(/C=C/c3cccs3)n2)cc1 | > 100 µM (inactive) | > 100 µM (inactive) | > 100 µM (inactive) | > 100 µM (inactive) | > 100 µM (inactive) | 37.3 µM (inactive) | 52.5 µM (inactive) |  |  | 36.5 µM (inactive) | 72.8 µM (inactive) | 41.6 µM (inactive) | > 100 µM (inactive) | > 100 µM (inactive) | > 100 µM (inactive) | > 100 µM (inactive) | > 100 µM (inactive) | 52.6 µM (inactive) | > 100 µM (inactive) | 95.7 µM (inactive)
C[C@]12C[C@H](O)[C@H]3[C@@H](CCC4=CC(=O)CC[C@@]43C)[C@@H]1CC[C@@H]2c1csc(-c2ccccc2)n1 | 25.2 µM (inactive) | > 28 µM (inactive) | > 51.6 µM (inactive) |  | > 58.3 µM (inactive) | > 46.3 µM (inactive) | 4.57 µM (inactive) | 4.16 µM (inactive) | 35.8 µM (inactive) | 3.56 µM (inactive) | > 53.8 µM (inactive) | > 34 µM (inactive) |  | 27.5 µM (inactive) | 59.7 µM (inactive) | 29.6 µM (inactive) | 26.4 µM (inactive) | 3.48 µM (inactive) |  | 24.9 µM (inactive)
Nc1n2nc(-c3ccccc3)sc2n[n+]1CC(=O)c1ccccc1 | 19.9 µM (inactive) | 17 µM (inactive) | 17.8 µM (inactive) | 12.5 µM (inactive) | 11.1 µM (inactive) | 2.72 µM (inactive) | 13.8 µM (inactive) | 15.8 µM (inactive) | 15.1 µM (inactive) | 12.5 µM (inactive) | 24.4 µM (inactive) | 38.5 µM (inactive) | 7.43 µM (inactive) | 16.7 µM (inactive) | 27.6 µM (inactive) | 21.7 µM (inactive) | 26.3 µM (inactive) | 26.1 µM (inactive) |  | 12.6 µM (inactive)
O=C(/C=C/c1ccc(O)c(O)c1)O[C@H]1CCCC[C@@H]1OC(=O)/C=C/c1ccc(O)c(O)c1 | 7.48 µM (inactive) | 22.9 µM (inactive) | 13.8 µM (inactive) | 11.2 µM (inactive) | 3.45 µM (inactive) | 8.83 µM (inactive) | 13.6 µM (inactive) | 5.22 µM (inactive) | 10.9 µM (inactive) | 9.18 µM (inactive) | 11.6 µM (inactive) | 22.7 µM (inactive) | 6.04 µM (inactive) | 15.8 µM (inactive) | 13.6 µM (inactive) | 12.3 µM (inactive) | 17.8 µM (inactive) | 15.6 µM (inactive) |  | 14.8 µM (inactive)
